Like-named read-outs stand apart in the source and are kept apart here.
What was measured:
[1] = tested on: dermatitis (contact and ectopic) patients; assay: Double blind study of oral 24(S)-OH-preD2 formulation in dermatitis (contact and ectopic); type: in vivo, human; settings: daily oral 10.0 to 20.0 μg, four to six weeks
Procedure: An oral dosage formulation containing 24(S)-OH-preD2 is evaluated in a double blind study for therapeutic efficacy of the formulation in the treatment of dermatitis (contact and ectopic). The formulation evaluated contains 10.0 to 20.0 μg of 24(S)-OH-preD2. […] The patients are treated in an outpatient clinic and are divided into an experimental and control population. They are instructed to take the medication once a day, in the morning before breakfast.
In each patient (experimental and control) an area of the skin containing a lesion is selected which is ordinarily covered by clothing, and the patients are instructed not to expose the skin area selected for study to sunlight. The area of the lesion is estimated and recorded, and the lesion(s) is photographed. Relevant details of the photographic procedure are recorded so as to be reproduced when the lesions are next photographed (distance, aperture, angle, background, etc.).
Evaluations of erythema, scaling, and thickness are conducted at weekly intervals by a physician. The final evaluation is usually carried out at the end of four to six weeks of treatment.

[2] = Production of 1α,24(S)-(OH)2-25-ene-D2 in osteoporotic women (blood metabolite, HPLC and radioreceptor assay); type: in vivo, human; settings: 25 μg/day for one week; one day following the last dose
Procedure: Human female subjects, who have been diagnosed with osteoporosis, are given daily doses of 25 μg/day 24-OH-25-ene-D2 for one week. Blood is collected and analyzed for the metabolite 1α,24(S)-(OH)2-25-ene-D2. Lipid is extracted from the blood, and the metabolite is purified by HPLC using standard methods and quantified with the radioreceptor assay produced by Incstar (Stillwater, Minn.).

[3] = Blood level of 1α,24-(OH)2-D2 in vitamin D-deficient rats given 24-OH-previtamin D2; type: in vivo; settings: 0.25 μg/kg oral; four hours after administration
Procedure: Male weanling rats are fed a diet deficient in vitamin D and with normal calcium (0.47%). After a period of four weeks has elapsed, the rats are divided into two groups, and orally administered either 24-OH-previtamin D2 (0.25 μg/kg) in a vehicle such as lactose or the vehicle (control) alone.

[4] = tested on: postmenopausal osteoporotic outpatients; assay: Clinical study of osteoporosis treatment with 24-OH-preD2; type: in vivo, human; settings: oral, above 5.0 μg/day, 24 months
Procedure: A clinical study is conducted with postmenopausal osteoporotic outpatients having ages between 55 and 75 years. The study involves up to 120 patients randomly divided into three treatment groups, and continues for 24 months. Two of the treatment groups receive constant dosages of orally administered 24-OH-preD2 (u.i.d.; two different dose levels above 5.0 μg/day) and the other group receives a matching placebo. All patients maintain a normal intake of dietary calcium (500 to 800 mg/day) and refrain from using calcium supplements. Efficacy is evaluated by pretreatment and posttreatment comparisons of the patient groups with regard to (a) total body, radial, femoral, and/or spinal bone mineral density as determined by x-ray absorptiometry (DEXA), (b) bone biopsies of the iliac crest, and (c) determinations of serum osteocalcin. Safety is evaluated by comparisons of urinary hydroxyproline excretion, serum and urine calcium levels, creatinine clearance, blood urea nitrogen, and other routine determinations.

[5] = tested on: patients with advanced androgen-independent prostate cancer; assay: Study of Example 10 repeated with 24-OH-preD2 in prostate cancer; type: in vivo, human; settings: for progression of metastatic disease (CAT scans, X-rays and bone scans): phase two, after two years
From the text: Patients with advanced androgen-independent prostate cancer participate in an open-label study of 24-(OH)-D2. […] On admission to the study, patients begin a course of therapy with oral 24-(OH)-D2 lasting 26 weeks, while discontinuing any previous use of calcium supplements, vitamin D supplements, and vitamin D hormone replacement therapies. During treatment, the patients are monitored at regular intervals for: (1) hypercalcemia, hyperphosphatemia, hypercalciuria, hyperphosphaturia and other toxicity; (2) evidence of changes in the progression of metastatic disease; and (3) compliance with the prescribed test drug dosage.
The study is conducted in two phases. During the first phase, the maximal tolerated dosage (MTD) of daily oral 24-(OH)D2 is determined by administering progressively higher dosages to successive groups of patients. All doses are administered in the morning before breakfast. The first group of patients is treated with 25.0 μg of 24-(OH)D2. Subsequent groups of patients are treated with 50.0, 75.0 and 100.0 μg/day. Dosing is continued uninterrupted for the duration of the study unless serum calcium exceeds 11.6 mg/dL, or other toxicity of grade 3 or 4 is observed, in which case dosing is held in abeyance until resolution of the observed toxic effect(s) and then resumed at a level which has been decreased by 10.0 μg.
The study of Example 10 is repeated for the vitamin D compound, 24-OH-preD2.

[6] = tested on: subjects with secondary hyperparathyroidism; assay: Twelve-month placebo-controlled trial of 24-OH-preD2 in elderly subjects with secondary hyperparathyroidism; type: in vivo, human; settings: 15 μg/day, twelve months
Procedure: (§1) A twelve-month double-blind placebo-controlled clinical trial is conducted with forty subjects with secondary hyperparathyroidism. The selected subjects have ages between 60 and 100 years and have a history of secondary hyperparathyroidism. Subjects also have femoral neck osteopenia (femoral neck bone mineral density of ≦0.70 g/cm^2).
(§2) All subjects enter a six-week control period after which the subjects are randomized into two treatment groups: one group receives a constant dosage of 15 μg/day 24-OH-preD2, and the other group receives a matching placebo. Both groups maintain a normal intake of dietary calcium without the use of calcium supplements. Efficacy is evaluated by pre- and post-treatment comparisons of the two patient groups with regard to (a) intact PTH (iPTH); (b) radial, femoral and spinal bone mineral density; and (c) bone-specific urine markers (e.g., pyridinium crosslinks). Safety is evaluated by (a) serium calcium and phosphorus, and (b) urine calcium and phosphorus.

[7] = tested on: patients with primary hyperparathyroidism; assay: Clinical trial of 24-OH-preD2 for primary hyperparathyroidism; type: in vivo, human
Procedure: Twenty renal patients are enrolled in a clinical trial to study primary hyperparathyroidism. The patients show baseline iPTH levels greater than 200 pg/mL. An initial dose of 24-OH-preD2 (2–4 μg/day) is increased (maximum, 10 μg/day) or decreased as necessary to attain and maintain iPTH in the normal range. After 11–12 weeks of treatment, the iPTH levels of the patients decrease to below 100 pg/mL, and in many cases to below 60 pg/mL.

postmenopausal women = settings: cited from earlier work
[8] = tested on: patients (Japan; senile osteoporosis); settings: cited from earlier work
[9] = tested on: postmenopausal osteoporotic out-patients; assay: Clinical study of prevention of bone mass loss with 24(S)-OH-25-ene-D2; type: in vivo, human; settings: at or above 5.0 μg/day, 24 to 36 months
Procedure: A clinical study is conducted with postmenopausal osteoporotic out-patients having ages between 55 and 75 years. The study involves up to 120 patients randomly divided into three treatment groups and continues for 24 to 36 months. Two of the treatment groups receive constant dosages of 24(S)-OH-25-ene-D2 (u.i.d.; two different dose levels at or above 5.0 μg/day) and the other group receives a matching placebo. All patients maintain a normal intake of dietary calcium (500 to 800 mg/day) and refrain from using calcium supplements. Efficacy is evaluated by pre- and post-treatment comparisons of the patient groups with regard to (a) total body calcium retention, and (b) radial and spinal bone mineral density as determined by dual-photon absorptiometry (DPA) or dual-energy x-ray absorptiometry (DEXA). Safety is evaluated by comparisons of urinary hydroxyproline excretion, serum and urine calcium levels, creatinine clearance, blood urea nitrogen, and other routine determinations.

[10] = tested on: subjects with secondary hyperparathyroidism; assay: Twelve-month placebo-controlled trial of 24-(OH)-D4 in elderly subjects with secondary hyperparathyroidism; type: in vivo, human; settings: 15 μg/day, twelve months
Procedure: as §1
as §2, with “24-(OH)-D4,” for “24-OH-preD2,”

[11] = In vivo generation of 1α,24-(OH)2-D2 in vitamin D-deficient rats (plasma metabolites by HPLC)
Procedure: 24-OH-D2 was administered (either oral or intraperitoneal supplementation) to vitamin D-deficient rats. Lipid extracts of the plasma were prepared and the metabolites purified by the method of Horst et al. (Horst, R. L., Koszewski, N. J. and Reinhardt, T. A., Biochem., 29:578–82 (1990) and incorporated herein by reference) described below for synthesizing standard biological 1α,24-(OH)2D2.

## 24(S)-hydroxyprevitamin D2 [24(S)-OH-preD2]
[1]
  degree of erythema, scaling, and thickness versus control patients: significantly reduces

## 24-hydroxy-25-ene-vitamin D2 [24-OH-25-ene-D2]
[2]
  level of 1α,24(S)-(OH)2-25-ene-D2 in the blood: significant level

## 24-hydroxyprevitamin D2 [24-OH-preD2]
[3]
  blood level of 1α,24-(OH)2-D2 versus control animals: significantly elevated
[4]
  bone biopsies (bone formation): stimulates normal bone formation
  incidence of hypercalcemia or hypercalciuria, or any other metabolic disturbance: insignificant incidence
  serum osteocalcin: significant elevations
  total body, radial, femoral, and/or spinal bone densities relative to placebo: significantly higher
[5]; higher dosage
  progression of metastatic disease (CAT scans, X-rays and bone scans): stable disease and partial or complete remission in many patients
[5]; lower dosage
  progression of metastatic disease (CAT scans, X-rays and bone scans): stable disease or partial remission in many patients
[5]; treated with the MTD for at least six months
  bone pain associated with metastatic disease: significantly diminished
[6]
  bone specific urine markers: significantly decreases
  incidence of hypercalcemia: insignificant incidence
  intact PTH (iPTH): significantly decreases
  radial and spinal bone densities relative to baseline values: stable
  serum calcium levels: normal serum calcium levels
[7]; after 11–12 weeks, baseline greater than 200 pg/mL, 2–4 μg/day, titrated
  iPTH levels of the patients: below 100 pg/mL
[7]; after 11–12 weeks, in many cases
  iPTH levels, in many cases: below 60 pg/mL
[7]; during the study
  episodes of hypercalcemia: few episodes of hypercalcemia

## C=C1/C(=C\C=C2/CCC[C@]3(C)[C@@H]([C@H](C)CCCC(C)(C)O)CC[C@@H]23)C[C@@H](O)C[C@@H]1O [1α,25-dihydroxyvitamin D3]
Postmenopausal women; 0.5 μg/day, postmenopausal women
  intestinal calcium absorption and calcium balance: improved
Postmenopausal women; dosage levels below 0.5 μg/day
  effects on bone mass or mineral content: no effects are observed

## C=C1/C(=C\C=C2/CCC[C@]3(C)[C@@H]([C@H](C)CCCC(C)C)CC[C@@H]23)C[C@@H](O)C[C@@H]1O [1α-hydroxyvitamin D3]
[8]; 1 μg/day, Japan, low calcium intake
  efficacy: efficacy is found
[8]; 1 μg/day
  patients in whom toxicity occurs: approximately 20%
[8]; 2 μg/day
  patients in whom toxicity occurs: approximately 67%

## C=C1CC[C@H](O)C/C1=C/C=C1\CCC[C@]2(C)[C@@H]([C@H](C)/C=C/[C@](C)(O)C(=C)C)CC[C@@H]12 [24(S)-OH-25-ene-D2]
[9]
  incidence of hypercalcemia or hypercalciuria, or any other metabolic disturbance: insignificant incidence
  total body calcium, and radial and spinal bone densities relative to placebo: significantly higher

## C=C1CC[C@H](O)C/C1=C/C=C1\CCC[C@]2(C)[C@@H]([C@H](C)CCC(C)(O)C(C)C)CC[C@@H]12 (some centres unmarked) [24-(OH)-D4, 24-hydroxyvitamin D4]
[10]
  bone specific urine markers: significantly decreases
  incidence of hypercalcemia: insignificant incidence
  intact PTH (iPTH): significantly decreases
  radial and spinal bone densities relative to baseline values: stable
  serum calcium levels: normal serum calcium levels

## C=C1CC[C@H](O)C/C1=C/C=C1\CCC[C@]2(C)[C@@H]([C@H](C)/C=C/[C@H](C)C(C)C)CC[C@@H]12 [vitamin D2]
[11]; vitamin D-deficient rats, oral or intraperitoneal supplementation, HPLC
  metabolite isolated from plasma lipid extracts versus standard 1α,24-(OH)2D2: co-migrated on HPLC with the standard 1α,24-(OH)2D2

## C=C1CC[C@H](O)C/C1=C/C=C1\CCC[C@]2(C)[C@@H]([C@H](C)CCCC(C)C)CC[C@@H]12 [vitamin D3]
[11]; comparable vitamin D-deficient rats
  detectable 24-OH-D3 in plasma: no detectable 24-OH-D3

— US7122530B2, “24-hydroxyvitamin D, analogs and uses thereof” (Genzyme Corporation, priority 1998, dated 2006)
